≈ marks a conversion by molar mass, not a printed value. Like-named read-outs stand apart in the source and are kept apart here.
How the values were obtained:
Type in all cases: cell-based
M. suipneumoniae NB12 = assay: Anti-mycoplasmal MIC in vitro, Friis broth agarose (Table 1); settings: Mesomycoplasma hyopneumoniae, NB12, 144 h
M. suipneumoniae MS 16 = assay: as above; settings: Mesomycoplasma hyopneumoniae, MS16, 144 h
M. hyorhinis ATCC 23234 = assay: as above; settings: Mesomycoplasma hyorhinis, ATCC23234, 144 h
[1] = tested on: M. hyosynoviae ATOC 25591; assay: as above; settings: 144 h
[2] = tested on: M. bovigenitalium ATOC 14173; assay: as above; settings: 144 h
M. gallisepticum S6 = assay: as above; settings: Mycoplasmoides gallisepticum
Bord. bronchiseptica BO8 = assay: Veterinary bacteria MIC, Diagnostic Sensitivity Test Agar (Table 2); settings: Bordetella bronchiseptica, BO8, 18 h
Description: (§1) The values were determined using a two fold serial dilutions in Diagnostic Sensitivity Test Agar with an inoculum of 10^4 organisms and incubation for 18 hours at 37° C.

Bord. bronchiseptica BO9 = assay: as above; settings: Bordetella bronchiseptica
Description: as §1

[3] = tested on: Corynebacterium pyogenes CY1; assay: as above; settings: Trueperella pyogenes, CY1, 18 h
Description: as §1

E. Coli E1 = assay: as above; settings: Escherichia coli
Description: as §1

E. Coli NCTC 10418 = assay: as above; settings: Escherichia coli
Description: as §1

[4] = tested on: Erysipelothrix rhusiopathiae NCTC 8163; assay: as above; settings: NCTC8163; Erysipelothrix rhusiopathiae NCTC 8163; DST Agar, 10^4 organisms, 18 hours 37° C.; read-out: MIC
Description: as §1

Past. haemolytica PA5 = assay: as above; settings: Mannheimia haemolytica
Description: as §1

Past. multocida PA1 = assay: as above; settings: Pasteurella multocida; Past. multocida PA1; DST Agar, 10^4 organisms, 18 hours 37° C.; read-out: MIC
Description: as §1

Past. multocida PA2 = assay: as above; settings: Pasteurella multocida; Past. multocida PA2; DST Agar, 10^4 organisms, 18 hours 37° C.; read-out: MIC
Description: as §1

S. dublin S7 = assay: as above; settings: Salmonella enterica
Description: as §1

S. typhimurium S18 = assay: as above; settings: Salmonella enterica
Description: as §1

Staph. aureus 152 = assay: as above
Description: as §1

Staph. aureus B4 = assay: as above; settings: Staphylococcus aureus; Staph. aureus B4; DST Agar, 10^4 organisms, 18 hours 37° C.; read-out: MIC
Description: as §1

Staph. aureus Oxford = assay: as above; settings: Staphylococcus aureus
Description: as §1

Strep. agalactiae SPA1 = assay: as above; settings: Streptococcus agalactiae; Strep. agalactiae SPA1; DST Agar, 10^4 organisms, 18 hours 37° C.; read-out: MIC
Description: as §1

Strep. dylgalactiae SPD1 = assay: as above
Description: as §1

Strep. uberis SPO1 = assay: as above; settings: Streptococcus uberis; Strep. uberis SPO1; DST Agar, 10^4 organisms, 18 hours 37° C.; read-out: MIC
Description: as §1

[5] = tested on: Neisseria catarrhalis 1502; assay: Human bacteria MIC, nutrient agar with chocolated horse blood (Table 3); settings: Neisseria catarrhalis 1502; nutrient agar 5% chocolated horse blood, 18 hours 37° C.; read-out: MIC
Description: (§2) The values were determined by serial dilutions in nutrient agar with 5% chocolated horse blood after incubations for 18 hours at 37° C.

Strep. 2733-B = assay: as above; settings: 18 h
Description: as §2

Strep. 641848-C = assay: as above
Description: as §2

Strep. pneumoniae CN33 = assay: as above; settings: Streptococcus pneumoniae; Strep. pneumoniae CN33; nutrient agar 5% chocolated horse blood, 18 hours 37° C.; read-out: MIC
Description: as §2

[6] = Past. haemolytica PA5, DST Agar, 10^4 organisms, 18 hours 37° C., read-out: MIC
[7] = Staphylococcus aureus, Staph. aureus 152, DST Agar, 10^4 organisms, 18 hours 37° C., read-out: MIC
[8] = Staph. aureus Oxford, DST Agar, 10^4 organisms, 18 hours 37° C., read-out: MIC
[9] = Strep. dylgalactiae SPD1, DST Agar, 10^4 organisms, 18 hours 37° C., read-out: MIC
[10] = Bord. bronchiseptica BO9, DST Agar, 10^4 organisms, 18 hours 37° C., read-out: MIC

Row | SMILES | MIC (M. suipneumoniae NB12) | MIC (M. suipneumoniae MS 16) | MIC (M. hyorhinis ATCC 23234) | MIC [1] | MIC [2] | MIC (M. gallisepticum S6; S6, 144 h) | MIC (Bord. bronchiseptica BO8) | MIC [3] | MIC (E. Coli E1; 18 h) | MIC (E. Coli NCTC 10418; NCTC10418, 18 h) | MIC [4] | MIC (Past. haemolytica PA5; [6]) | MIC (Past. multocida PA1) | MIC (Past. multocida PA2) | MIC (S. dublin S7; S7, 18 h) | MIC (S. typhimurium S18; TYPHIMURIUM, 18 h) | MIC (Staph. aureus 152; [7]) | MIC (Staph. aureus B4) | MIC (Strep. agalactiae SPA1) | MIC (Strep. uberis SPO1) | other results
1 | C/C(=C\C(=O)OCc1ccccc1[N+](=O)[O-])CC1OCC(CC2OC2C(C)C(C)O)C(O)C1O (stereo not shown) [C, O--nitrobenzyl monate A, reference compound] | 0.5 µg/mL (≈ 1.04 µM) | 0.25 µg/mL (≈ 0.521 µM) | 0.25 µg/mL (≈ 0.521 µM) | 0.25 µg/mL (≈ 0.521 µM) | 0.025 µg/mL (≈ 0.0521 µM) | 5 µg/mL (≈ 10.4 µM) | 80 µg/mL (≈ 167 µM) | > 80 µg/mL | > 80 µg/mL | > 80 µg/mL | 80 µg/mL (≈ 167 µM) | 10 µg/mL (≈ 20.9 µM) | 2.5 µg/mL (≈ 5.21 µM) | 1.25 µg/mL (≈ 2.61 µM) | > 80 µg/mL | > 80 µg/mL | 0.625 µg/mL (≈ 1.3 µM) | 0.625 µg/mL (≈ 1.3 µM) | 2.5 µg/mL (≈ 5.21 µM) | 0.07 µg/mL (≈ 0.146 µM) | MIC (Bord. bronchiseptica BO9; BO9, 18 h): 10 µg/mL (≈ 20.9 µM); MIC (Staph. aureus Oxford; [8]): 0.625 µg/mL (≈ 1.3 µM); MIC (Strep. dylgalactiae SPD1; [9]): 0.625 µg/mL (≈ 1.3 µM); MIC [5]: 1 µg/mL (≈ 2.09 µM); MIC (Strep. 2733-B): 2.5 µg/mL (≈ 5.21 µM)
2 | C/C(=C\C(=O)OCc1cccc([N+](=O)[O-])c1C)CC1OCC(CC2OC2C(C)C(C)O)C(O)C1O (stereo not shown) [Example 8, 2-methyl-3-nitrobenzyl monate A] | 0.1 µg/mL (≈ 0.203 µM) | 0.1 µg/mL (≈ 0.203 µM) | 0.1 µg/mL (≈ 0.203 µM) |  |  |  | 40 µg/mL (≈ 81 µM) | > 80 µg/mL | > 80 µg/mL | > 80 µg/mL | 20 µg/mL (≈ 40.5 µM) | 10 µg/mL (≈ 20.3 µM) | 1.25 µg/mL (≈ 2.53 µM) | 1.25 µg/mL (≈ 2.53 µM) | > 80 µg/mL | > 80 µg/mL |  | 0.625 µg/mL (≈ 1.27 µM) | 0.625 µg/mL (≈ 1.27 µM) | 0.07 µg/mL (≈ 0.142 µM) | MIC ([1]; M. hyosynoviae ATOC 25591, in vitro, 6 days 37° C., read-out: MIC): 0.05 µg/mL (≈ 0.101 µM); MIC ([2]; M. bovigenitalium ATOC 14173, in vitro, 6 days 37° C., read-out: MIC): 0.025 µg/mL (≈ 0.0507 µM); MIC (M. gallisepticum S6; 144 h, M. gallisepticum S6, in vitro, 6 days 37° C., read-out: MIC): 5 µg/mL (≈ 10.1 µM); MIC (Bord. bronchiseptica BO9; [10]): 5 µg/mL (≈ 10.1 µM); MIC (Staph. aureus 152; Staphylococcus aureus, 152, 18 h): 0.312 µg/mL (≈ 0.632 µM); MIC (Staph. aureus Oxford; 18 h): 0.312 µg/mL (≈ 0.632 µM); MIC (Strep. dylgalactiae SPD1; 18 h): 0.312 µg/mL (≈ 0.632 µM); MIC [5]: 0.25 µg/mL (≈ 0.507 µM); MIC (Strep. 641848-C; Strep. 641848-C, nutrient agar 5% chocolated horse blood, 18 hours 37° C., read-out: MIC): 0.5 µg/mL (≈ 1.01 µM); MIC (Strep. pneumoniae CN33): 0.5 µg/mL (≈ 1.01 µM)
3 | C/C(=C\C(=O)OCc1ccc([N+](=O)[O-])cc1)CC1OCC(CC2OC2C(C)C(C)O)C(O)C1O (stereo not shown) [Example 1, p-nitrobenzyl monate A] | 0.05 µg/mL (≈ 0.104 µM) | 0.05 µg/mL (≈ 0.104 µM) | 0.05 µg/mL (≈ 0.104 µM) | < 0.01 µg/mL | < 0.01 µg/mL | 0.25 µg/mL (≈ 0.521 µM) | 5 µg/mL (≈ 10.4 µM) | > 80 µg/mL |  |  | 10 µg/mL (≈ 20.9 µM) |  | 0.156 µg/mL (≈ 0.325 µM) | > 0.019 µg/mL |  |  | 0.156 µg/mL (≈ 0.325 µM) | 0.156 µg/mL (≈ 0.325 µM) | 0.317 µg/mL (≈ 0.661 µM) | 0.039 µg/mL (≈ 0.0813 µM) | MIC (Bord. bronchiseptica BO9; [10]): 1.25 µg/mL (≈ 2.61 µM); MIC (E. Coli E1; E. Coli E1, DST Agar, 10^4 organisms, 18 hours 37° C., read-out: MIC): 40 µg/mL (≈ 83.4 µM); MIC (E. Coli NCTC 10418; NCTC10418, E. Coli NCTC 10418, DST Agar, 10^4 organisms, 18 hours 37° C., read-out: MIC): 40 µg/mL (≈ 83.4 µM); MIC (Past. haemolytica PA5; PA5, 18 h): 1.25 µg/mL (≈ 2.61 µM); MIC (S. dublin S7; S. dublin S7, DST Agar, 10^4 organisms, 18 hours 37° C., read-out: MIC): 40 µg/mL (≈ 83.4 µM); MIC (S. typhimurium S18; S. typhimurium S18, DST Agar, 10^4 organisms, 18 hours 37° C., read-out: MIC): 40 µg/mL (≈ 83.4 µM); MIC (Staph. aureus Oxford; [8]): 0.156 µg/mL (≈ 0.325 µM); MIC (Strep. dylgalactiae SPD1; [9]): 0.07 µg/mL (≈ 0.146 µM); MIC (Strep. 641848-C; 18 h): 0.25 µg/mL (≈ 0.521 µM); MIC (Strep. pneumoniae CN33): 0.1 µg/mL (≈ 0.209 µM)

From patent US4436751A, “Nitrobenzyl monates antibacterial compounds” (Beecham Group Limited, priority 1980, dated 1984)
